Where “and” joins values, the source holds several entries; their conditions need not be identical. Equal entries are not always repeated. Entries after “also recorded” stand apart in the source; their conditions may differ. Where two headings read alike, the source gives them in different places.
Tests used:
[1] = tested on: IL-2; assay: Cytokine production from splenocytes, ConA stimulation, IL-2 (ELISA); format: cell-based, murine; conditions: 24 h
Description: (§1) For splenocyte cytokine production assay, 5×10^6 cells per well were inoculated into a 24-well tissue culture plate with ConA (5 mg/L) or Sac (1:10000) stimulation. Different concentrations of Anemonin were added in a final volume of 2 ml. Cells were incubated at 37° C., 5% CO2 for 24 h and supernatants were harvested, IFN-γ, IL-10, IL12 (p40) and IL-2 in supernatants were measured by the sandwich enzyme-linked immunosorbent assay (ELISA) as specified by the manufacturer (BD Bioscience pharmingen, US). Concentrations of the cytokine productions were calculated based on standard curves obtained from serial dilutions of murine cytokines (r IFN-γ, rIL-10, rIL12, rIL-2). As shown in Tables C-3 and C-4, high-dose Anemonin (1-100 μg/ml) inhibited all kinds of cytokine release induced by ConA or Sac.

[2] = tested on: T-lymphocytes from the whole spleen of mice; assay: ConA-induced responsive proliferation of T-lymphocytes ([3H] thymidine); format: cell-based; conditions: for Proliferation of T-lymphocytes ConA stimulation Average of CPM values: ConA at 51 μg/ml, 48 hours
Description: 5.2.1. Mice were sacrificed by removing spondyle, spleen was cut off in a sterile condition and then ground to obtain single cell suspension. After erythrocytes were got rid of the remained cells were diluted to […] with RPMI-1640 culture solution containing 10% fetal bovine serum.
5.2.2. 200 μl solution in total volume (including 100 μl the cell suspension, 50 μl sample and 50 μl ConA or LPS) was dispensed on 96-well plate.
50 μl culture solution containing 10% fetal bovine serum, instead of 50 μl sample, was added as negative control, in which the total volume was also 200 μl.
5.2.3. The cell was cultured at 37° C. and under 5% CO2 in incubator for 48 hours, and [^3H] thymidine (1.9×10^4 Bq) was added to the plate at 25 μl/well 12 hours before the end of culture.
5.2.4. The culture was continued. The plates were then stored at −20° C. in refrigeratory after the culture. The thawed cells were collected to fiberglass membrane (Nitrocellose membrane) with cell collector when detecting. After the addition of Scintillation solution, the quantity of [^3H] thymidine incorporated into DNA of cells was detected by Beta counter (MicroBeta Trilux, PerkinElmer LifeSciences). The proliferation of lymphocytes was indicated by cpm value.
Effect of the medicament on ConA-induced responsive proliferation of T-lymphocytes was examined, said T-lymphocytes were from the whole spleen of mice. ConA at 51 μg/ml final concentration was used as the stimulator to induce responsive proliferation of T-lymphocytes from the whole spleen of ICR homogenous mice (cultured in vitro for 48 hours).

[3] = tested on: IFN-γ; assay: Cytokine production from splenocytes, ConA stimulation, IFN-γ (ELISA); format: cell-based, murine; conditions: 24 h
Description: as §1

[4] = tested on: dimethylbenene-induced ear swelling; assay: Acute ear edema of mice induced by dimethylbenene; format: in vivo; conditions: for Ear swellin: 50 μl on ear, two hours after dimethylbenene
Description: The mice were randomly divided into 5 groups. Thirty minutes and sixty minutes after applying dimethylbenene (50 μl) to the anterior and posterior surfaces of the right ear, 25% ethanol (50 μl), the linimene solutions of anemonin (0.05, 0.5, 5 mg/ml, 50 μl) and FAA (a positive control) were applied on the same ears of mice respectively. The left ear was considered as control. Two hours after dimethylbenene application, mice were killed and both ears were removed. Circular sections were taken, using a 9 mm-diameter borer, and weighed. The increase in weight caused by the irritant was measured by subtracting the weight of the untreated left ear section from that of the treated right ear section.

[5] = tested on: carrageenan-induced paw edema; assay: Acute hind paw edema of rats induced by carrageenan; format: in vivo
Description: The animals were injected subcutaneously with carrageenan (10 μl of 1% solution in saline) into the right paw. Anti-inflammatory properties of external anemonin were studied by applying with various liniment solution of anemonin (0.125, 0.5, 2 mg/ml, 0.5 ml) for 2 h immediately after administration of carrageenan. The rats of control group were treated with the same volume of solvent (25% ethanol). The paw volumes of rats were measured at 0, 2 h, 3 h, 4 h, 5 h, 6 h after injection of carrageenan. The paw edema was represented by subtracting the volume of the untreated same paw from that of the treated paw.

[6] = Stability test for prolonged storage; format: physicochemical; conditions: anemonin in the present medication
From the text: According to preferred embodiments of the present invention, when the extracted anemonin or anemonin extract liquor is mixed with one or more Chinese herbs or chemical pharmaceuticals, the stability of the anemonin is not affected by the combined Chinese herbs, chemical components contained therein or the pharmaceuticals, and the amenonin can still effectively treat various aseptic inflammations.

[7] = In vitro percutaneous penetration velocity of anemonin; format: in vitro ADME; set-up: steady penetration velocity into derma: unit not given here; conditions: for Js: steady penetration velocity / Q24: cumulative amount of percutaneous penetration medicament per square centimeter for 24 hours / Tlag: time lag: n = 3

Compound: O=C1C=CC2(CCC23C=CC(=O)O3)O1 (centres unmarked) [Anemonin, anemonin]
- IL-2 ([1]; 0.001 μg/ml): 482 ± 7 pg/mL
- IL-2 ([1]; 0.01 μg/ml): 479 ± 5 pg/mL
- IL-2 ([1]; 0.1 μg/ml): 461 ± 2 pg/mL
- IL-2 ([1]; 1 μg/ml): 190 ± 2 pg/mL
- IL-2 ([1]; 10 μg/ml): 22 ± 1 pg/mL
- IL-2 ([1]; 100 μg/ml): 28 ± 1 pg/mL
- Proliferation of T-lymphocytes ConA stimulation Average of CPM values ([2]; 0.001 μg/ml, Table B-4): 15466 CPM
- Proliferation of T-lymphocytes ConA stimulation Average of CPM values ([2]; 0.01 μg/ml, Table B-4): 19386 CPM
- Proliferation of T-lymphocytes ConA stimulation Average of CPM values ([2]; 0.1 μg/ml, Table B-4): 15284 CPM
- Proliferation of T-lymphocytes ConA stimulation Average of CPM values ([2]; 1 μg/ml, Table B-3): 8650 CPM
- Proliferation of T-lymphocytes ConA stimulation Average of CPM values ([2]; 1 μg/ml, Table B-4): 8438 CPM
- Proliferation of T-lymphocytes ConA stimulation Average of CPM values ([2]; 10 μg/ml, Table B-3): 171 CPM
- Proliferation of T-lymphocytes ConA stimulation Average of CPM values ([2]; 10 μg/ml, Table B-4): 46 CPM
- Proliferation of T-lymphocytes ConA stimulation Average of CPM values ([2]; 100 μg/ml, Table B-3): 160 CPM
- Proliferation of T-lymphocytes ConA stimulation Average of CPM values ([2]; 100 μg/ml, Table B-4): 155 CPM
- inhibition at 0.001 µg/mL ([2]; Mus musculus, T-lymphocyte, 0.001 μg/ml, ConA stimulation, Table B-4, read-out: General assess of activity Enhancement/Inhibition): 11%
- inhibition at 0.01 µg/mL ([2]; Mus musculus, T-lymphocyte, 0.01 μg/ml, ConA stimulation, Table B-4, read-out: General assess of activity Enhancement/Inhibition): -11%
- inhibition at 0.1 µg/mL ([2]; Mus musculus, T-lymphocyte, 0.1 μg/ml, ConA stimulation, Table B-4, read-out: General assess of activity Enhancement/Inhibition): 13%
- inhibition at 1 µg/mL ([2]; Mus musculus, T-lymphocyte, 1 μg/ml, ConA stimulation, Table B-3, read-out: General assess of activity Enhancement/Inhibition): 47%
- inhibition at 1 µg/mL ([2]; Mus musculus, T-lymphocyte, 1 μg/ml, ConA stimulation, Table B-4, read-out: General assess of activity Enhancement/Inhibition): 52%
- inhibition at 10 µg/mL ([2]; Mus musculus, T-lymphocyte, 10 μg/ml, ConA stimulation, Table B-3, read-out: General assess of activity Enhancement/Inhibition): 99%
- inhibition at 10 µg/mL ([2]; Mus musculus, T-lymphocyte, 10 μg/ml, ConA stimulation, Table B-4, read-out: General assess of activity Enhancement/Inhibition): 100%
- inhibition at 100 µg/mL ([2]; Mus musculus, T-lymphocyte, 100 μg/ml, ConA stimulation, Table B-3, read-out: General assess of activity Enhancement/Inhibition): 99%
- inhibition at 100 µg/mL ([2]; Mus musculus, T-lymphocyte, 100 μg/ml, ConA stimulation, Table B-4, read-out: General assess of activity Enhancement/Inhibition): 99%
- inhibition of ConA-induced responsive proliferation of lymphocytes ([2]; final concentration range from 0.1 μg/ml to 100 μg/ml): remarkably inhibited; also recorded: sharply inhibited
- IFN-γ ([3]; 0.001 μg/ml): 2405 ± 171 pg/mL
- IFN-γ ([3]; 0.01 μg/ml): 2651 ± 120 pg/mL
- IFN-γ ([3]; 0.1 μg/ml): 2298 ± 4 pg/mL
- IFN-γ ([3]; 1 μg/ml): 508 ± 16 pg/mL
- IFN-γ ([3]; 10 μg/ml): 94 ± 0 pg/mL
- IFN-γ ([3]; 100 μg/ml): 89 ± 3 pg/mL
- Ear swellin ([4]; 0.05 mg/ml liniment): 18 ± 7 mg
- Ear swellin ([4]; 0.5 mg/ml liniment): 16 ± 4 mg
- Ear swellin ([4]; 5 mg/ml liniment): 12 ± 4 mg
- ear edema formation ([4]; 0.05-5 mg/ml applied): inhibited in a dose-dependent manner
- inhibitory effect on ear edema ([4]; doses of 2.5-25 μg/ear): statistically significant
- Paw edema ([5]; 0.125 mg/ml liniment, 2 h): 0.24 ± 0.06 mL
- Paw edema ([5]; 0.125 mg/ml liniment, 3 h): 0.20 ± 0.09 mL
- Paw edema ([5]; 0.125 mg/ml liniment, 4 h): 0.33 ± 0.08 mL
- Paw edema ([5]; 0.125 mg/ml liniment, 5 h): 0.36 ± 0.11 mL
- Paw edema ([5]; 0.125 mg/ml liniment, 6 h): 0.39 ± 0.08 mL
- Paw edema ([5]; 0.5 mg/ml liniment, 2 h): 0.24 ± 0.13 mL
- Paw edema ([5]; 0.5 mg/ml liniment, 3 h): 0.21 ± 0.08 mL
- Paw edema ([5]; 0.5 mg/ml liniment, 4 h): 0.25 ± 0.07 mL
- Paw edema ([5]; 0.5 mg/ml liniment, 5 h): 0.35 ± 0.10 mL
- Paw edema ([5]; 0.5 mg/ml liniment, 6 h): 0.40 ± 0.08 mL
- Paw edema ([5]; 2 mg/ml liniment, 0.5 ml for 2 h, 2 h after carrageenan): 0.25 ± 0.08 mL
- Paw edema ([5]; 2 mg/ml liniment, 3 h): 0.16 ± 0.08 mL
- Paw edema ([5]; 2 mg/ml liniment, 4 h): 0.25 ± 0.07 mL
- Paw edema ([5]; 2 mg/ml liniment, 5 h): 0.30 ± 0.06 mL
- Paw edema ([5]; 2 mg/ml liniment, 6 h): 0.31 ± 0.10 mL
- paw edema development ([5]; liniment 0.125, 0.5, 2 mg/ml, dose-dependent manner): significantly reduced
- stability on prolonged storage [6]: at least 5 years
- ER: increased permeation times ([7]; 30% ethanol solution): 2.0
- Js: steady penetration velocity ([7]; 30% ethanol solution): 4.65 ± 0.47 μg · cm^−2 · h^−1
- Q24: cumulative amount of percutaneous penetration medicament per square centimeter for 24 hours ([7]; 30% ethanol solution): 104.45 ± 12.58 μg · cm^−2
- Tlag: time lag ([7]; 30% ethanol solution): 1.09 ± 0.20 h
- steady penetration velocity into derma ([7]; 30% of ethanol): 4.65
- ER: increased permeation times ([7]; water-saturated solution): 1.0
- Js: steady penetration velocity ([7]; water-saturated solution): 2.28 μg · cm^−2 · h^−1 and 2.28 ± 0.39 μg · cm^−2 · h^−1
- Q24: cumulative amount of percutaneous penetration medicament per square centimeter for 24 hours ([7]; water-saturated solution): 50.49 ± 6.48 μg · cm^−2
- Tlag: time lag ([7]; water-saturated solution): 2.05 ± 0.74 h
